Data on one compound can be found in PMC9147274 (Pharmaceuticals, 2022).

In data set [1] the test system is A549. The data set can be described thus: Cytotoxicity toward A549, MTT assay. Format: cell-based, human. The settings on record: Homo sapiens; A549, MTT, 48 h. As for the experimental part:
(§1) DMSO was used as vehicle control. […] All experiments were performed in triplicate. […] Cells were exposed for 48 h.
(§2) Table S1 The cytotoxicity of triazole-cored derivatives toward various human lung carcinoma cell lines A549, Thai human cholangiocarcinoma cells HuCCA-1, T-cell acute lymphoblastic leukemia MOLT-3, and acute promyelocytic leukemia HL-60. The inhibitory activities were indicated as IC50 in micromolar scale (µM). The calculated selectivity indices (SI) were reported in square brackets.
(§3) Cancer Cell lines, IC50 (µM), [SI]
On the technique in general: Tetrazolium assays rely on reduction of a dye to a coloured formazan, in cell work by metabolically active cells.

A short description of data set [2]: Cytotoxicity toward MRC-5, MTT assay. Format: cell-based. The settings on record: human, MRC-5 cells, MRC-5 normal cells. Here is the method: as §1
Data set [3] has as its system HepG2 cells. Nature of the data set: Cell-cycle analysis (propidium iodide, flow cytometry). Format: cell-based, human. The settings on record: HepG2, 2 µM, 72 h. On the technique in general: A flow cytometer gives signals particle by particle.
Procedure: The concentration of DMSO was kept at 0.5% v/v for all conditions. Cells were washed with PBS before they were harvested; 1 × 10^5 Cells were collected and fixed with 70% ice-cold ethanol, and then washed twice with ice-cold PBS. Afterward, the cells were treated with 100 g/mL of DNase-free RNase A (Sigma-Aldrich, St. Louis, MO, USA) in PBS containing 0.1% v/v Triton-X 100 (Sigma-Aldrich, St. Louis, MO, USA) for 5 min at room temperature and then stained with 20 g/mL propidium iodide (Life Technologies, Carlsbad, CA, USA) in PBS containing 0.1% v/v Triton-X 100 for 15 min at room temperature while protected from light. Cell-cycle distribution was then analyzed with a flow cytometer (Attune NxT, Thermo Fischer Scientific, Waltham, MA, USA). Data were analyzed with Attune NxT Software (Thermo Fischer Scientific, Waltham, MA, USA). All experiments were performed in triplicate. Student’s t-test was used for statistical analysis; p < 0.05 was considered statistically significant [96].
For data set [4] the following is noted: cited from earlier work.
Data set [5] deals with HepG2 cells. The data set can be described thus: Cell morphology by light microscopy. The conditions noted are these: 48 h, 2.5-10.0 µM.
Data set [6] concerns HepG2 cells. Nature of the data set: Detection of apoptosis (Muse Annexin V & Dead Cell Kit). It is filed as cell-based, human. The settings on record: 48 h; for average percentage of apoptotic cells (total, early and late apoptosis): untreated 22.35 ± 0.07%. Here is the method: Based on annexin V reactivity and the intensity of the 7-AAD fluorescence, cells can be classified into four categories: dead, live, early apoptosis, and late apoptosis. […] The detection of apoptosis was performed by the Muse® Annexin V & Dead Cell Kit according to the manufacturer’s protocol (Millipore, Billerica, MA, USA). […] An amount of 100 µL of HepG2 cells in suspension and 100 µL of Muse Annexin V & Dead Cell reagent were added to a 1.5 mL tube. The apoptosis was measured using the Muse cell analyzer and Muse analysis software (Millipore, Billerica, MA, USA). Cells were classified into four groups: live (Annexin V− and 7-AAD−), early apoptosis (Annexin V+ and 7-AAD−), late apoptosis (Annexin V+ and 7-AAD+), and dead or necrotic (Annexin V− and 7-AAD+). The apoptosis experiment was performed in duplicate.

For data set [7], the system named is HuCCA-1. The data set can be described thus: Cytotoxicity toward HuCCA-1, MTT assay. The settings on record: Homo sapiens, HuCC-A1; HuCCA-1, MTT, 48 h. It is filed as cell-based, human. As for the experimental part:
as §1, §2, §3

In data set [8] the test system is HepG2. Nature of the data set: Cytotoxicity toward HepG2, MTT assay. The conditions noted are these: read-out: Cytotoxicity HepG2 IC50; HepG2, MTT, 72 h.
Procedure: DMSO was used as vehicle control. […] All experiments were performed in triplicate. Data were expressed as the IC50 ± SD. […] Cells were exposed for 48 h.
Data set [9] relates to HL-60. Nature of the data set: Cytotoxicity toward HL-60, XTT assay. The conditions noted are these: Homo sapiens; HL-60, XTT, 48 h. It is filed as cell-based, human. Here is the method: as §1, §2, §3

Regarding `CNC(=O)c1cc(Oc2ccc(NC(=O)Nc3ccc(Cl)c(C(F)(F)F)c3)cc2)ccn1` [Sorafenib], the concentration for half-maximal inhibition (IC50) in data set [1] is 19.65 ± 0.01 µM; in data set [7], 33.2 ± 1.45 µM; in [8], 5.97 ± 0.71 µM; in data set [9], 5.35 ± 0.38 µM. The compound further showed an IC50 at 48 h in data set [2] of 19.7 ± 1.68 µM. Further, the “Effect on cell cycle” value in [3] is “induced S and G2/M phase cell-cycle arrest”. Moreover, in data set [4], the bioavailability is given as 38–49%. Also, in data set [5], the “Cell morphology changes of HepG2” value was “cell morphology changes (shrink and smaller in size) were observed after treating HepG2 with Sorafenib at 5.0 µM and 10.0 µM”. The “Late Apop./Dead (late stage apoptotic cells)” value turned out to be 7.60% in [6] (HepG2, 2.5 µM) and 13.65% in [6] (HepG2, 10.0 µM). Moreover, the “average percentage of apoptotic cells (total, early and late apoptosis)” value was found to be 24.55 ± 0.28% in data set [6] (HepG2, 2.5 µM) and 46.45 ± 0.78% in data set [6] (HepG2, 10.0 µM).

As usually defined, the IC50 is the midpoint of a concentration-inhibition curve.
